Test results: article PMC2941486 (Journal of Biomedical Science, 2010)
Marks after values point to notes of the source that are not given here. Square brackets hold non-standard residues; d marks the D form. Peptide text beside a SMILES is read from it. Dopa = N[C@@H](Cc1ccc(O)c(O)c1)C(=O)O; dPhg = N[C@@H](C(=O)O)c1ccccc1

Key:
[1] = target: T1, intestinal peptide transporter I (PepT1) (Rattus norvegicus, UniProt P51574); assay: BBMV uptake of d-phenylglycine-l-dopa with or without competitors; type: in vitro ADME; conditions: pH 7.4, room temperature
T1 construct: brush-boarder membrane vesicle (BBMV) prepared from rat intestine; from tissue; host or cells: rat intestine, brush-border membrane vesicles made by magnesium precipitation
T1 sequence (P51574 1-710): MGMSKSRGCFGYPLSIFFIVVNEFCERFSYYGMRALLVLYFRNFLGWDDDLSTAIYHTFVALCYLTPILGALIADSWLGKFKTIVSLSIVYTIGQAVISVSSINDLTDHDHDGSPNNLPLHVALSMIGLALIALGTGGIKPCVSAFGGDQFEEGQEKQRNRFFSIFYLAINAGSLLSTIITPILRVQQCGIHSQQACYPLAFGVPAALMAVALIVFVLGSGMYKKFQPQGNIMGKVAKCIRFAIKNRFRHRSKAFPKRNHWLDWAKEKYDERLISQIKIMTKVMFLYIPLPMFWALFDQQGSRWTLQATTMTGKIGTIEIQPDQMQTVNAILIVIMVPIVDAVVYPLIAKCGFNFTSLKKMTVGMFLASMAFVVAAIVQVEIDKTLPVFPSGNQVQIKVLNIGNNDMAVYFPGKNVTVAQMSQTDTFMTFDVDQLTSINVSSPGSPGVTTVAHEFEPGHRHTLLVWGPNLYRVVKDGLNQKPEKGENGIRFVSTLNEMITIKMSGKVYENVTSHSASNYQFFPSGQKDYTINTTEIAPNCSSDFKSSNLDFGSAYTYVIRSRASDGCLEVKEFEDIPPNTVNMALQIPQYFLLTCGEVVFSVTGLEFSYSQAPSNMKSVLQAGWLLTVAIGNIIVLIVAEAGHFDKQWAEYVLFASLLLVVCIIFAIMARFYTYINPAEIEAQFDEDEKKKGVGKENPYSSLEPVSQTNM

[2] = Stability in rat intestinal mucosa suspension; type: in vitro ADME; conditions: pH 6.5 isotonic buffer, 37°C
Protocol: Mucosa suspension was prepared from the intestine of male Wistar rats according to established method and was stored in an ice bath before use.
The stability of d-phenylglycine-l-dopa in the intestine was determined prior to the intestinal absorption studies. In order to simulate intestinal microclimate pH, the compound was incubated with the intestinal mucosal suspension in a pH 6.5 isotonic buffer solution. l-Gly-l-Phe comprising essential amino acids degraded rapidly with only 50% of recovery after 2 min of incubation. d-Phenylglycine-l-dopa, on the other hand, was very stable with almost 100% of recovery after 90 min of incubation (Figure 3).
Figure 3 Comparison of the stability of d-phenylglycine-l-dopa and l-Gly-l-Phe in rat intestinal mucosa suspension. Each point represents mean ± SE. of 3 experiments. A methanolic solution (100 μl) of the test compound (1 mg/ml) was diluted with an isotonic mannitol buffer solution (pH 6.5, 2.4 ml) as the stock solution. This stock solution (1 ml) was mixed with the freshly prepared mucosal suspension (1 ml). The mixture was incubated in a water bath at 37°C and subjected to sampling at intervals between zero to 90 min of incubation. Each sampled solution (200 μl) was denatured with 0.8 ml of MeOH and centrifuged at 6,600 g for 5 min. Each of the supernatant (20 - 100 μl) was subjected to HPLC assay.

[3] = In situ single-pass jejunal perfusion; type: in vivo, rat; conditions: for Blood concentration: steady-state plasma concentration after jejunal perfusion, l-dopa detected in only one of three rats
Protocol: Literature procedure was followed for the preparation of perfusion solutions and the jejunal segments. To maximize the absorption and to prevent the test compounds from being oxidized during perfusion, the experiments were performed at pH 6.0 with 0.02% (w/v) ascorbic acid added as antioxidant and nitrogen gas was bubbled through for 10 min before each experiment. Perfusion solution was pumped through the jejunal segment at a flow rate of 0.2 ml/min by a syringe pump (Stoelting, KD Scientific, U.S.A.). The jejunal segment was pre-washed with drug-free buffer for 10 min before the drug solution was pumped in. Outlet tubing samples were collected every 10 min for 6 collection periods after water and solute transport reached steady-state. The dimensionless membrane permeability Pm* [28] was measured as indications for the disappearance rate of test compound from the intestine. Plasma samples were withdrawn from carotid artery.
The absorption of d-phenylglycine-l-dopa and l-dopa was compared in rats by in situ single-pass jejunal perfusion experiments. Amidon's dimensionless cross-membrane permeability (Pm*) was determined as a parameter of intestinal absorption. The steady-state plasma concentration was also determined (Table 1).

[4] = Pharmacokinetics after i.v. and oral administration; type: in vivo, Wistar rats; conditions: for AUC / half-life / clearance / Vd / Tmax: Wistar, rat, plasma, 5.97 mg/kg; for clearance: read-out: Clp; for Vd: read-out: Vdss; for Fraction of absorption (BA): oral vs i.v., Equation 1, rats
Protocol: Rats were fasted for at least 18 h prior to drug administration. Anaesthesia was induced by i.p. injection of urethane (0.15 g/100 g body weight). The rats were put under a heating lamp to maintain body temperature.
The HPLC system used in the assay of biological samples consisted of an autosampler (AS950, Jasco, Tokyo, Japan), a Waters Model 600E solvent delivery pump (Millipore, Milford, MA, USA), a Model LC-4C electrochemical detector with a glassy-carbon electrode (Bioanalytical Systems, Inc., West Lafayette, IN, USA), and an integrator (Macintosh LC II with Macintegrator I). A Nucleosil® 10 SA cationic ion-exchange column (10 μm, 300 × 4.0 mm, Macherey-Nagel, Düren, Germany) with a mobile phase comprising NaCl (50 mM) and Na2-EDTA (1.0 mM) in 0.1 M ammonium phosphate buffer (pH 2.0) at a flow rate of 2.0 ml/min was used for the elution of the samples. […] HPLC assay methods were validated by determining the precision and accuracy of intra-day and inter-day analysis of serum standards over a period of 6 days. The coefficients of variation for inter- and intraday assays were less than 15% for both compounds (n = 6).
According to the literature, the area under the plasma concentration-time profile (AUC) was calculated by log-linear trapezoidal rule. Plasma concentration after i.v. administration of drugs were also fitted to a […] model using PCNONLIN and Akeike's Information Criteria, sum of squared residuals, residual plot and correlation coefficient were use for determination of the compartment model. The residual area after the last observed data point was calculated as Clast/k, where Clast is the last observed concentration, and k is the corresponding terminal rate constant. Terminal half-life (t1/2) was estimated compartment model-independently. The fraction of absorption was calculated according to Equation 1.
(1) BA=AUCoral⋅koral/doseoral/AUCiv⋅kiv/doseiv×100%
Blood samples were collected from the carotid artery at time intervals of from 1 to 180 min. Heparin sodium (25 I.U./ml in 0.3 ml of saline) was added to blood samples, and were then centrifuged at 6,600 g for 5 min. Plasma was stored at -78°C until being analyzed. A 200 μl of the plasma sample in a 10 ml test tube was mixed with 500 μl of 1.0 M Tris buffer (pH 8.6, adjusted by EDTA-2Na^+) and 10 μl of 3,4-dihydroxybenzylamine (DHBA, 2 μg/ml) was added as internal standard. Alumina 100 mg was then added and then shake for 15 sec and the supernatant was decanted. The alumina was washed four times with 5 ml of water, and the adsorbed compounds on the alumina was eluted with 200 μl of an acidic solution (0.9 ml of glacial acetic acid in 4.0 ml of 1.0 M phosphate buffer). A 30 μl of the eluent was then analyzed by HPLC.

[5] = system: striatal dopamine; assay: Brain microdialysis of striatal dopamine after i.v. injection; type: in vivo, Sprague-Dawley rats; conditions: after i.v. injection 50 mg/kg
Protocol: Single dose d-phenylglycine-l-dopa (50 mg/kg in 2.5 mL of normal saline) was administered i. v. via femoral vein to anesthetized male Sprague-Dawley rats (280 - 320 g). The body temperature of the rats was maintained at 37°C with a heating pad throughout the experiment. The rat was immobilized in a stereotaxic frame (David Kopf Instruments, Tujunga, CA, USA), the skull was surgically exposed, and a hole was drilled with a trephine into the skull based on stereotaxic coordinates. The brain microdialysis system consisted of a CMA/100 microinjection pump (CMA, Stockholm, Sweden) and a microdialysis probe. The dialysis probes (3 mm in length) were made of silica capillary in a concentric design with their tips covered by dialysis membrane (Spectrum, 150 μm outer diameter with a cut-off at nominal molecular mass of 13000, Laguna Hills, CA, USA). The probe was placed into right striatum (0.2 mm anterior to bregma and 3.2 mm lateral to midline) and perfused with Ringer's solution (147 mM Na+; 2.2 mM Ca++; 4 mM K+; pH 7.0) at a flow-rate of 1 μl min^-1. The position of each probe was verified at the end of experiments. The dialysates was collected at 10 min intervals and aliquots of 10 μl was assayed by microbore HPLC. […]

[6] = system: 6-OHDA-treated unilateral striatal-lesioned rats; conditions: 10 mg/kg
[7] = oral, dose equivalent to 5.97 mg/kg l-dopa, rats

Inhibition of BBMV uptake of d-phenylglycine-l-dopa by added competitor [1] | Blood concentration [3] | AUC ([4]; iv) | half-life ([4]; iv) | clearance ([4]; iv) | Vd ([4]; iv) | AUC ([4]; po) | Tmax ([4]; po) | half-life ([4]; po) | Fraction of absorption (BA) [4] | Clp [4, 7] | SMILES | other results
– | 64.6 ± 5.40 µg/mL | 1040 ng·h/mL | 4.23 ± 1.22 h | 180 ± 60 mL/min/kg | 11 ± 5.08 L/kg | 481 ng·h/mL | 0.638 h | 2.38 ± 0.395 h | 27.58 ± 4.56% | 290 ± 100 mL/min/kg | N[C@@H](C(=O)N[C@@H](Cc1ccc(O)c(O)c1)C(=O)O)c1ccccc1 [d-phenylglycine-l-dopa] (H-[dPhg]-[Dopa]-OH) | recovery at 90 min, 0.02 mg/ml ([2]; male, Wistar, rat, intestinal mucosa suspension, 90 min of incubation, read-out: Recovery after incubation with intestinal mucosal suspension): ~100%; Steady-state plasma concentration after perfusion, molar ratio, higher than that of l-dopa ([3]; jejunal perfusion, rats): 31.1 fold; Molar ratio of blood concentration ([3]; steady-state, jejunal perfusion): 31.1; Systemic bioavailability (AUC), times lower than that of l-dopa ([4]; i.v., rats): 7 times; Vdss [4, 7]: 35.7 ± 17.1 L/kg; Fraction of oral absorption, fold higher than that of l-dopa ([4]; rats, oral): 31 fold; Oral bioavailability, times higher than that of l-dopa ([4]; rats, oral): 31.7 times; Time at which striatal dopamine had not reached plateau [5]: > 3.5 h; Striatal dopamine level ([5]; anesthetized rats, dialysates at 10 min intervals): increased gradually
significantly inhibited | – | – | – | – | – | – | – | – | – | – | NCC(=O)N[C@@H](Cc1ccccc1)C(=O)O [l-Gly-l-Phe, reference compound] (H-Gly-Phe-OH) | Recovery after incubation with intestinal mucosal suspension ([2]; 2 min of incubation): 50%
less inhibited | – | – | – | – | – | – | – | – | – | – | N[C@@H](Cc1ccccc1)C(=O)O [l-Phe] | –

Further lines, the compound ahead of its results:

SMILES | Inhibition of BBMV uptake of d-phenylglycine-l-dopa by added competitor [1] | Blood concentration [3] | AUC ([4]; iv) | half-life ([4]; iv) | clearance ([4]; iv) | Vd ([4]; iv) | AUC ([4]; po) | Tmax ([4]; po) | half-life ([4]; po) | Fraction of absorption (BA) [4] | Clp [4, 7] | other results
CC1=C(C(=O)O)N2C(=O)[C@@H](NC(=O)[C@H](N)C3=CCC=CC3)[C@H]2SC1 [cephradine] | significantly inhibited | – | – | – | – | – | – | – | – | – | – | –
NCC(=O)N1CCC[C@H]1C(=O)O [l-Gly-l-Pro] (H-Gly-Pro-OH) | significantly inhibited | – | – | – | – | – | – | – | – | – | – | –
N[C@@H](Cc1ccc(O)c(O)c1)C(=O)O [l-dopa, reference compound] | – | 1.24^a μg/ml | 7660 ng·h/mL | 1.69 ± 0.462 h | 20 ± 20 mL/min/kg | 1.22 ± 0.89 L/kg | 456 ng·h/mL | 0.417 h | 3.08 ± 0.77 h | 0.87 ± 0.24% | 10 ± 0 mL/min/kg | Reduction in rotation (mean ± SE %) [6]: 9.9 ± 1.4%
